US10167293B2, “[8-(phenylsulfonyl)-3,8-diazabicyclo[3.2.1]oct-3-yl](1H-1,2,3-triazol-4-yl)methanones” (BAYER PHARMA AKTIENGESELLSCHAFT, priority 2016, dated 2019)
pIC50: −log10 of the molar value.

Each compound was assayed against recombinant human AKR1C3 (Homo sapiens (Human), UniProt P42330) (assay: AKR1C3-inhibitory activity assay (Coumberone to Coumberol fluorescence)). Conditions: recombinant human AKR1C3, 15 min pre-incubation, 10 μM NADPH, 0.3 μM Coumberone.
Type: biochemical
Procedure: The AKR1C3-inhibitory activity of the substances of the present invention was measured in the AKR1C3 assay described in the paragraphs below.
Essentially, the enzyme activity is measured by quantification of the generation of Coumberol from Coumberone (Halim et al. J. AM. CHEM. SOC. 2008, 130:14123-14128 and Yee et al. Proc. Natl. Acad. Sci. USA 2006, 103:13304-13309). In this test, the increase of the highly fluorescent Coumberol by NADPH—(nicotinamide adenine dinucleotide phosphate)-dependent reduction of the non-fluorescent Coumberone by AKR1C3 was determined.
The enzyme used was recombinant human AKR1C3 (Aldo-keto reductase family 1 member C3; GenBank Accession No. NM_003739). This was expressed in E. coli as GST (glutathione S transferase) fusion protein and purified by glutathione Sepharose affinity chromatography. The GST was removed by digestion with thrombin and subsequent size exclusion chromatography (Dufort, I., Rheault, P., Huang, X F., Soucy, P., and Luu-The, V., Endocrinology 140, 568-574 (1999)).
For the assay, 50 nl of a 100-fold concentrated solution of the test substance in DMSO were pipetted into a black low-volume 384-well microtiter plate (Greiner Bio-One, Frickenhausen, Germany), 2.5 μl of a solution of AKR1C3 in assay buffer [50 mM potassium phosphate buffer pH 7, 1 mM DTT, 0.0022% (w/v) Pluronic F-127, 0.01% BSA (w/v) and protease inhibitor cocktail (Complete, EDTA-free Protease Inhibitor Cocktail from Roche)] were added and the mixture was incubated for 15 min to allow pre-binding of the substances to the enzyme prior to the enzyme reaction. The enzyme reaction was then started by addition of 2.5 μl of a solution of NADPH (20 μM→final concentration in 5 μl of assay volume is 10 μM) and Coumberone (0.6 μM→final concentration in 5 μl of assay volume is 0.3 μM) in assay buffer, and the resulting mixture was incubated at 22° C. for the reaction time of typically 90 min. The concentration of the AKR1C3 and the reaction time was adapted to the respective activity of the enzyme preparation and adjusted such that the assay was carried out in the linear range. Typical AKR1C3 concentrations were in the region of 1 nM. The reaction was stopped by addition of 2.5 μl of a stop solution consisting of 3 μM EM-1404 as inhibitor (U.S. Pat. No. 6,541,463) in 50 mM HEPES pH7.5 (3 μM EM-1404→final concentration in 7.5 μl of assay volume is 1 μM). The fluorescence of the Coumberole was then measured at 520 nm (excitation at 380 nm) using a suitable measuring instrument (Pherastar from BMG Labtechnologies). The intensity of the fluorescence was used as a measure of the amount of Coumberole formed and thus of the enzyme activity of AKR1C3. The data were normalized (enzyme reaction without inhibitor=0% inhibition; all other assay components, but no enzyme=100% inhibition).

Chain of recombinant human AKR1C3 (P42330 whole entry): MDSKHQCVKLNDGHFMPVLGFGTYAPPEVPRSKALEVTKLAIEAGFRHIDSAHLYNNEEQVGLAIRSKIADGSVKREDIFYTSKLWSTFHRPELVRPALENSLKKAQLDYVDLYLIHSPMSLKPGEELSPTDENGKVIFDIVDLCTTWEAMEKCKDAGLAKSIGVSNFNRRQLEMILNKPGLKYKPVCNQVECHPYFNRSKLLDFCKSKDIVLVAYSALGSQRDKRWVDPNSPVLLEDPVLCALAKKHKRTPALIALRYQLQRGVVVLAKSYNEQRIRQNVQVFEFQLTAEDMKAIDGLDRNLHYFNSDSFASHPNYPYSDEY

Compound	pIC50
O=C(c1c[nH]nn1)N1CC2CCC(C1)N2S(=O)(=O)c1ccccc1 [Example 1, [8-(phenylsulfonyl)-3,8-diazabicyclo[3.2.1]oct-3-yl](1H-1,2,3-triazol-4-yl)methanone]	8.43
O=C(c1c[nH]nn1)N1CC2CCC(C1)N2S(=O)(=O)c1ccccc1C(F)(F)F [Example 2, 1H-1,2,3-triazol-4-yl[8-{[2-(trifluoromethyl)phenyl]sulfonyl}-3,8-diazabicyclo[3.2.1]oct-3-yl]methanone]	9.00
O=C(c1cnn[nH]1)N1CC2CCC(C1)N2S(=O)(=O)c1cc(F)cc(F)c1 [Example 3, {8-[(3,5-difluorophenyl)sulfonyl]-3,8-diazabicyclo[3.2.1]oct-3-yl}(1H-1,2,3-triazol-5-yl)methanone]	8.85
O=C(c1cnn[nH]1)N1CC2CCC(C1)N2S(=O)(=O)c1cccc(F)c1 [Example 4, {8-[(3-fluorophenyl)sulfonyl]-3,8-diazabicyclo[3.2.1]oct-3-yl}(1H-1,2,3-triazol-5-yl)methanone]	8.92
O=C(c1cnn[nH]1)N1CC2CCC(C1)N2S(=O)(=O)c1cccc(Cl)c1 [Example 5, {8-[(3-chlorophenyl)sulfonyl]-3,8-diazabicyclo[3.2.1]oct-3-yl}(1H-1,2,3-triazol-4-yl)methanone]	8.92
Cc1ccccc1S(=O)(=O)N1C2CCC1CN(C(=O)c1cnn[nH]1)C2 [Example 6, {8-[(2-methylphenyl)sulfonyl]-3,8-diazabicyclo[3.2.1]oct-3-yl}(1H-1,2,3-triazol-4-yl)methanone]	8.77
O=C(c1c[nH]nn1)N1CC2CCC(C1)N2S(=O)(=O)c1cccc(S(F)(F)(F)(F)F)c1 [Example 8, [8-{[3-(pentafluoro-lambda^6-sulfanyl)phenyl]sulfonyl}-3,8-diazabicyclo[3.2.1]oct-3-yl](1H-1,2,3-triazol-4-yl)methanone]	8.89
O=C(c1c[nH]nn1)N1CC2CCC(C1)N2S(=O)(=O)c1cc(Cl)cc(Cl)c1 [Example 9, {8-[(3,5-dichlorophenyl)sulfonyl]-3,8-diazabicyclo[3.2.1]oct-3-yl}(1H-1,2,3-triazol-4-yl)methanone]	9.05
O=C(c1c[nH]nn1)N1CC2CCC(C1)N2S(=O)(=O)c1cc(C(F)(F)F)cc(C(F)(F)F)c1 [Example 10]	8.14
O=C(c1c[nH]nn1)N1CC2CCC(C1)N2S(=O)(=O)c1ccc(Cl)s1 [Example 11, {8-[(5-chlorothiophen-2-yl)sulfonyl]-3,8-diazabicyclo[3.2.1]oct-3-yl}(1H-1,2,3-triazol-4-yl)methanone]	8.96
O=C(c1c[nH]nn1)N1CC2CCC(C1)N2S(=O)(=O)c1cc(F)ccc1F [Example 12, {8-[(2,5-difluorophenyl)sulfonyl]-3,8-diazabicyclo[3.2.1]oct-3-yl}(1H-1,2,3-triazol-4-yl)methanone]	8.96
Cc1cccc(S(=O)(=O)N2C3CCC2CN(C(=O)c2cnn[nH]2)C3)c1 [Example 13, {8-[(3-methylphenyl)sulfonyl]-3,8-diazabicyclo[3.2.1]oct-3-yl}(1H-1,2,3-triazol-5-yl)methanone]	8.85
Cc1ccc(S(=O)(=O)N2C3CCC2CN(C(=O)c2cnn[nH]2)C3)cc1 [Example 14, {8-[(4-methylphenyl)sulfonyl]-3,8-diazabicyclo[3.2.1]oct-3-yl}(1H-1,2,3-triazol-5-yl)methanone]	8.72
O=C(c1cnn[nH]1)N1CC2CCC(C1)N2S(=O)(=O)c1ccccc1F [Example 15, {8-[(2-fluorophenyl)sulfonyl]-3,8-diazabicyclo[3.2.1]oct-3-yl}(1H-1,2,3-triazol-5-yl)methanone]	8.82
O=C(c1cnn[nH]1)N1CC2CCC(C1)N2S(=O)(=O)c1ccc(F)cc1 [Example 16, {8-[(4-fluorophenyl)sulfonyl]-3,8-diazabicyclo[3.2.1]oct-3-yl}(1H-1,2,3-triazol-5-yl)methanone]	8.66
N#Cc1cccc(S(=O)(=O)N2C3CCC2CN(C(=O)c2cnn[nH]2)C3)c1 [Example 17, 3-{[3-(1H-1,2,3-triazol-5-ylcarbonyl)-3,8-diazabicyclo[3.2.1]oct-8-yl]sulfonyl}benzonitrile]	8.54
Cc1cc(C)cc(S(=O)(=O)N2C3CCC2CN(C(=O)c2cnn[nH]2)C3)c1 [Example 18, {8-[(3,5-dimethylphenyl)sulfonyl]-3,8-diazabicyclo[3.2.1]oct-3-yl}(1H-1,2,3-triazol-5-yl)methanone]	9.00
Cc1ccc(C)c(S(=O)(=O)N2C3CCC2CN(C(=O)c2cnn[nH]2)C3)c1 [Example 19, {8-[(2,5-dimethylphenyl)sulfonyl]-3,8-diazabicyclo[3.2.1]oct-3-yl}(1H-1,2,3-triazol-5-yl)methanone]	8.96
COc1cccc(S(=O)(=O)N2C3CCC2CN(C(=O)c2cnn[nH]2)C3)c1 [Example 20, {8-[(3-methoxyphenyl)sulfonyl]-3,8-diazabicyclo[3.2.1]oct-3-yl}(1H-1,2,3-triazol-5-yl)methanone]	9.00
COc1ccc(S(=O)(=O)N2C3CCC2CN(C(=O)c2cnn[nH]2)C3)cc1 [Example 21, {8-[(4-methoxyphenyl)sulfonyl]-3,8-diazabicyclo[3.2.1]oct-3-yl}(1H-1,2,3-triazol-5-yl)methanone]	8.70
O=C(c1cnn[nH]1)N1CC2CCC(C1)N2S(=O)(=O)c1ccc(Cl)cc1 [Example 22, {8-[(4-chlorophenyl)sulfonyl]-3,8-diazabicyclo[3.2.1]oct-3-yl}(1H-1,2,3-triazol-5-yl)methanone]	8.82
O=C(c1cnn[nH]1)N1CC2CCC(C1)N2S(=O)(=O)c1ccc(F)c(F)c1 [Example 23, {8-[(3,4-difluorophenyl)sulfonyl]-3,8-diazabicyclo[3.2.1]oct-3-yl}(1H-1,2,3-triazol-5-yl)methanone]	8.66
O=C(c1cnn[nH]1)N1CC2CCC(C1)N2S(=O)(=O)c1c(F)cccc1F [Example 24, {8-[(2,6-difluorophenyl)sulfonyl]-3,8-diazabicyclo[3.2.1]oct-3-yl}(1H-1,2,3-triazol-5-yl)methanone]	8.74
O=C(c1cnn[nH]1)N1CC2CCC(C1)N2S(=O)(=O)c1ccc(F)cc1F [Example 25, {8-[(2,4-difluorophenyl)sulfonyl]-3,8-diazabicyclo[3.2.1]oct-3-yl}(1H-1,2,3-triazol-5-yl)methanone]	8.59
Cc1c(Cl)cccc1S(=O)(=O)N1C2CCC1CN(C(=O)c1cnn[nH]1)C2 [Example 26, {8-[(3-chloro-2-methylphenyl)sulfonyl]-3,8-diazabicyclo[3.2.1]oct-3-yl}(1H-1,2,3-triazol-5-yl)methanone]	8.96
O=C(c1cnn[nH]1)N1CC2CCC(C1)N2S(=O)(=O)c1cccc(Cl)c1F [Example 27, {8-[(3-chloro-2-fluorophenyl)sulfonyl]-3,8-diazabicyclo[3.2.1]oct-3-yl}(1H-1,2,3-triazol-5-yl)methanone]	9.05
O=C(c1cnn[nH]1)N1CC2CCC(C1)N2S(=O)(=O)c1ccc(F)c(Cl)c1 [Example 28, {8-[(3-chloro-4-fluorophenyl)sulfonyl]-3,8-diazabicyclo[3.2.1]oct-3-yl}(1H-1,2,3-triazol-5-yl)methanone]	8.92
O=C(c1cnn[nH]1)N1CC2CCC(C1)N2S(=O)(=O)c1cccc(C(F)(F)F)c1 [Example 29, 1H-1,2,3-triazol-5-yl[8-{[3-(trifluoromethyl)phenyl]sulfonyl}-3,8-diazabicyclo[3.2.1]oct-3-yl]methanone]	9.05
O=C(c1cnn[nH]1)N1CC2CCC(C1)N2S(=O)(=O)c1cc(Cl)ccc1Cl [Example 30, {8-[(2,5-dichlorophenyl)sulfonyl]-3,8-diazabicyclo[3.2.1]oct-3-yl}(1H-1,2,3-triazol-5-yl)methanone]	9.22
O=C(c1cnn[nH]1)N1CC2CCC(C1)N2S(=O)(=O)c1cccc(Br)c1 [Example 31, {8-[(3-bromophenyl)sulfonyl]-3,8-diazabicyclo[3.2.1]oct-3-yl}(1H-1,2,3-triazol-5-yl)methanone]	9.30
